# Laboratory results as given in US20110070232A1, “Combination Therapy with an Antitumor Alkaloid” (Pharma Mar, S.A., priority 2008, published 2011).
# Read-outs that look alike come from different tables or passages of the source.
# Columns and labels:
# [1] = tested on: LoVo (colon cancer) cell line; test: IC50 determination, MIT (tetrazolium) assay, 72 h (Example 18); format: cell-based, human; details: Homo sapiens, 72 hours of drug exposure
# Experimental: (§1) Before plating, cell cultures were trypsinized and cell number estimated using an automated flow cytometer.
# (§2) Cells were harvested and seeded in 96 well microtiter plates at the appropriate cell density (5,000-10,000 cells) in 150 μL of media and incubated for 24 hours to allow the cells to attach before drug addition.
# (§3) After the incubation period (72 hours), 50 μL of MIT solution was added to each microtiter well and incubated for further 8 hours at 37° C. The culture medium was then removed and 50 μl, of DMSO were added to dissolve the MIT crystals. Optical densities were read at 540 nm on spectrophotometer microplate reader.
# (§4) IC50 values were calculated from an average of two to four assays for each of the test agents.
# [2] = tested on: HT-29 (colon cancer) cell line; test: as above; format: cell-based, human; details: Homo sapiens; HT-29, 72 hours of drug exposure
# Experimental: as §1, §2, §3, §4
# MRI-H-254 tumors = format: in vivo, mice
# Experimental: Female athymic nude mice (Harlan Sprague Dawley, Madison, Wis.) were utilized for all experiments. Animals were housed in ventilated rack caging with food and water ad libitum. The mice were acclimated for at least 5 days prior to tumor implantation with tumor fragments.
# Treatments were initiated on DPI 16.
# (§5) Tumor size measurements were recorded twice weekly from the treatment initiation until the termination of the study.
# (§6) Mean, standard deviation and standard error of the mean were determined for tumor volume for all animal groups at all assessments. Student's t test was performed on tumor volumes at each measurement day, including at the end of the study, to determine whether there were any statistically significant differences between combination treatment groups and single monotherapy treatment groups.
# BxPC-3 tumors = format: in vivo, mice; details: mg/kg/day: PM00104 0.90 IV, gemcitabine 180 IP
# Experimental: Female CB17.SCID mice (Charles River Lab.) were utilized for all experiments. Animals were housed in ventilated rack caging with food and water ad libitum. The mice were acclimated for at least 5 days prior to tumor implantation with a tumor cell suspension.
# The tumor model used in these studies was BxPC-3 cell line, which was obtained from the ATCC (Manassas, Va.).
# Bacterial cultures were performed on aliquots of the cells prepared for implantation.
# Treatments were initiated on DPI 14.
# as §5, §6
# CaLu-6 tumors = format: in vivo, mice
# Experimental: (§7) Female athymic nude mice (Harlan Sprague Dawley, Madison, Wis.) were utilized for all experiments. Animals were housed in ventilated rack caging with food and water ad libitum. The mice were acclimated for at least 5 days prior to tumor implantation.
# The tumor model used in this study was CaLu-6 cell line which is a human lung cancer cell line obtained from the ATCC (Manassas, Va.). CaLu-6 cells were grown in Eagle's Minimum Essential Medium (MEM), 10% FBS and 2 mM L-glutamine. Cells from in vitro passage 12 were implanted SC into study mice using a 1 ml syringe with a 13G trocar: 5×10^6 cells/mouse in 0.2 ml 50% Matrigel/50% MEM medium of CaLu-6 without serum or antibiotics. Bacterial culture was taken on cells used to implant the study.
# When tumors reached an appropriated volume, within the size range of 99±17 mm^3 (mean±SD), mice were randomized into the treatment and control groups based on tumor weight by using LabCat® In Life module V 8.0 SP1 tumor tracking and measurement software. Treatments were initiated on DPI 9.
# (§8) Tumor size measurements were recorded 2-3 times/week from the treatment initiation until the termination of the study.
# as §6
# NCI-H460 tumors = format: in vivo, mice
# Excerpt: as §7
# The tumor model used in this study was NCI-H460 cell line which is a human NSCLC cell line obtained from the ATCC (Manassas, Va.). […] Cells from in vitro passage 9 were those implanted SC into study mice.
# Treatments were initiated on DPI 8.
# as §8, §6
# [3] = day 16, PM00104 0.90, cisplatin 3, irinotecan 10, paclitaxel 12.5 mg/kg/day
# [4] = day 16, PM00104 0.90, cisplatin 5, irinotecan 18, paclitaxel 25 mg/kg/day
# [5] = day 20, PM00104 0.90, cisplatin 3, irinotecan 10, paclitaxel 12.5 mg/kg/day
# [6] = day 20, PM00104 0.90, cisplatin 5, irinotecan 18, paclitaxel 25 mg/kg/day
# [7] = day 23, PM00104 0.90, cisplatin 3, irinotecan 10, paclitaxel 12.5 mg/kg/day
# [8] = day 23, PM00104 0.90, cisplatin 5, irinotecan 18, paclitaxel 25 mg/kg/day
# [9] = day 26, PM00104 0.90, cisplatin 3, irinotecan 10, paclitaxel 12.5 mg/kg/day
# [10] = day 26, PM00104 0.90, cisplatin 5, irinotecan 18, paclitaxel 25 mg/kg/day
# [11] = day 29, PM00104 0.90, cisplatin 3, irinotecan 10, paclitaxel 12.5 mg/kg/day
# [12] = day 29, PM00104 0.90, cisplatin 5, irinotecan 18, paclitaxel 25 mg/kg/day
# [13] = day 33, PM00104 0.90, cisplatin 3, irinotecan 10, paclitaxel 12.5 mg/kg/day
# [14] = day 33, PM00104 0.90, cisplatin 5, irinotecan 18, paclitaxel 25 mg/kg/day
# [15] = day 40, PM00104 0.90, cisplatin 3, irinotecan 10, paclitaxel 12.5 mg/kg/day
# [16] = day 40, PM00104 0.90, cisplatin 5, irinotecan 18, paclitaxel 25 mg/kg/day
# [17] = day 48, PM00104 0.90, cisplatin 3, irinotecan 10, paclitaxel 12.5 mg/kg/day
# [18] = day 48, PM00104 0.90, cisplatin 5, irinotecan 18, paclitaxel 25 mg/kg/day
# [19] = Gemcitabine 90 mg/kg/day IP, alone or with PM00104 0.9 mg/kg/day IV
# [20] = PM00104 0.9 mg/kg/day IV and/or Gemcitabine 180 mg/kg/day IP
compound,measurement,setting,value
"O=c1[nH]cc(F)c(=O)[nH]1 [5-FU, 5-fluorouracil]",IC50,[1],1800 nM
same,IC50,[2],4000 nM
"N.N.[Cl][Pt][Cl] [Cisplatin, cisplatin]",% Inhibition,MRI-H-254 tumors; [3],1.6%
same,% T/C,MRI-H-254 tumors; [3],98.4%
same,% Inhibition,MRI-H-254 tumors; [4],−0.5%
same,% T/C,MRI-H-254 tumors; [4],100.5%
same,% Inhibition,MRI-H-254 tumors; [5],6.6%
same,% T/C,MRI-H-254 tumors; [5],93.4%
same,% Inhibition,MRI-H-254 tumors; [6],2.2%
same,% T/C,MRI-H-254 tumors; [6],97.8%
same,% Inhibition,MRI-H-254 tumors; [7],17.0%
same,% T/C,MRI-H-254 tumors; [7],83.0%
same,% Inhibition,MRI-H-254 tumors; [8],24.7%
same,% T/C,MRI-H-254 tumors; [8],75.3%
same,% Inhibition,MRI-H-254 tumors; [9],18.5%
same,% T/C,MRI-H-254 tumors; [9],81.5%
same,% Inhibition,MRI-H-254 tumors; [10],40.1%
same,% T/C,MRI-H-254 tumors; [10],59.9%
same,% Inhibition,MRI-H-254 tumors; [11],27.0%
same,% T/C,MRI-H-254 tumors; [11],73.0%
same,% Inhibition,MRI-H-254 tumors; [12],45.7%
same,% T/C,MRI-H-254 tumors; [12],54.3%
same,% Inhibition,MRI-H-254 tumors; [13],31.4%
same,% T/C,MRI-H-254 tumors; [13],68.6%
same,% Inhibition,MRI-H-254 tumors; [14],60.5%
same,% T/C,MRI-H-254 tumors; [14],39.5%
same,% Inhibition,MRI-H-254 tumors; [15],44.7%
same,% T/C,MRI-H-254 tumors; [15],55.3%
same,% Inhibition,MRI-H-254 tumors; [16],76.2%
same,% T/C,MRI-H-254 tumors; [16],23.8%
same,% Inhibition,MRI-H-254 tumors; [17],50.8%
same,% T/C,MRI-H-254 tumors; [17],49.2%
same,% Inhibition,MRI-H-254 tumors; [18],82.9%
same,% T/C,MRI-H-254 tumors; [18],17.1%
"Nc1ccn([C@@H]2O[C@H](CO)[C@@H](O)C2(F)F)c(=O)n1 [Gemcitabine, gemcitabine]",% Inhibition,BxPC-3 tumors; day 14,3.1%
same,% T/C on day,BxPC-3 tumors; day 14,96.9%
same,% Inhibition,BxPC-3 tumors; day 16,−44.6%
same,% T/C on day,BxPC-3 tumors; day 16,144.6%
same,% Inhibition,BxPC-3 tumors; day 19,−15.6%
same,% T/C on day,BxPC-3 tumors; day 19,115.6%
same,% Inhibition,BxPC-3 tumors; day 22,25.5%
same,% T/C on day,BxPC-3 tumors; day 22,74.5%
same,% Inhibition,BxPC-3 tumors; day 26,−6.1%
same,% T/C on day,BxPC-3 tumors; day 26,106.1%
same,% Inhibition,BxPC-3 tumors; day 29,20.7%
same,% T/C on day,BxPC-3 tumors; day 29,79.3%
same,% Inhibition,BxPC-3 tumors; day 34,31.3%
same,% T/C on day,BxPC-3 tumors; day 34,68.7%
same,% Inhibition,BxPC-3 tumors; day 40,−33.9%
same,% T/C on day,BxPC-3 tumors; day 40,133.9%
same,% T/C on day 9,CaLu-6 tumors; [19],100.6%
same,% T/C on day 12,CaLu-6 tumors; [19],37.8%
same,% T/C on day 15,CaLu-6 tumors; [19],78.8%
same,% T/C on day 19,CaLu-6 tumors; [19],64.8%
same,% T/C on day 22,CaLu-6 tumors; [19],72.0%
same,% T/C on day 26,CaLu-6 tumors; [19],67.1%
same,% T/C on day 29,CaLu-6 tumors; [19],61.3%
same,% T/C on day 34,CaLu-6 tumors; [19],72.8%
same,% T/C on day 40,CaLu-6 tumors; [19],76.1%
same,% T/C on day 9,CaLu-6 tumors; [20],99.6%
same,% T/C on day 12,CaLu-6 tumors; [20],39.0%
same,% T/C on day 15,CaLu-6 tumors; [20],61.0%
same,% T/C on day 19,CaLu-6 tumors; [20],62.5%
same,% T/C on day 22,CaLu-6 tumors; [20],48.7%
same,% T/C on day 26,CaLu-6 tumors; [20],53.0%
same,% T/C on day 29,CaLu-6 tumors; [20],46.8%
same,% T/C on day 34,CaLu-6 tumors; [20],52.8%
same,% T/C on day 40,CaLu-6 tumors; [20],60.4%
same,% T/C on day 8,NCI-H460 tumors; [19],108.6%
same,% T/C on day 11,NCI-H460 tumors; [19],83.2%
same,% T/C on day 14,NCI-H460 tumors; [19],90.2%
same,% T/C on day 18,NCI-H460 tumors; [19],65.3%
same,% T/C on day 21,NCI-H460 tumors; [19],73.4%
same,% T/C on day 25,NCI-H460 tumors; [19],63.2%
same,% T/C on day 28,NCI-H460 tumors; [19],76.9%
same,% T/C on day 8,NCI-H460 tumors; [20],101.3%
same,% T/C on day 14,NCI-H460 tumors; [20],67.5%
same,% T/C on day 18,NCI-H460 tumors; [20],52.0%
same,% T/C on day 21,NCI-H460 tumors; [20],69.3%
same,% T/C on day 25,NCI-H460 tumors; [20],58.7%
same,% T/C on day 28,NCI-H460 tumors; [20],56.8%
